The test deals with L1210 leukemia ip in BDF1 mice, survival T/C. Description: NCI In Vivo Anticancer Drug Screen. Data for tumor model L1210 Leukemia (intraperitoneal) in B6D2F1 (BDF1) mice. As to conditions: endpoint: mean survival time, higher = longer survival. In outline: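 Ratio derived from survival: compound-dosed mice over vehicle-dosed mice, all bearing a transplantable tumor.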
Setting [1] is: dose: 100.0 mg/kg/injection, schedule: Q01DX009 (ip), vehicle: Klucel (hydroxypropylcellulose) (HPC).
[2] abbreviates: dose: 200.0 mg/kg/injection, schedule: Q01DX009 (ip), vehicle: Klucel (hydroxypropylcellulose) (HPC).
The mark [3] stands for this setting: dose: 400.0 mg/kg/injection, schedule: Q01DX009 (ip), vehicle: Klucel (hydroxypropylcellulose) (HPC).

Structures are written as SMILES. Where “and” joins values, the source holds several entries; their conditions need not be identical. Equal values may be shown once. Toxic doses and inconclusive results are not listed.

In the case of `Cc1c2oc3c(C)c([N+](=O)[O-])cc(C(=O)NC4C(=O)NC(C(C)C)C(=O)N5CCCC5C(=O)N(C)CC(=O)N(C)C(C(C)C)C(=O)OC4C)c3nc-2c(C(=O)NC2C(=O)NC(C(C)C)C(=O)N3CCCC3C(=O)N(C)CC(=O)N(C)C(C(C)C)C(=O)OC2C)c(N)c1=O` (configuration not stated), the T/C by setting is: (dose: 75.0 micrograms/kg/injection, schedule: Q01DX009 (ip), vehicle: saline + alcohol) 110 % of control; (dose: 100.0 micrograms/kg/injection, schedule: Q01DX009 (ip), vehicle: saline + alcohol) 116 % of control; (dose: 150.0 micrograms/kg/injection, schedule: Q01DX009 (ip), vehicle: saline + alcohol) 111 % of control; (dose: 300.0 micrograms/kg/injection, schedule: Q01DX009 (ip), vehicle: saline + alcohol) 108 % of control; (dose: 400.0 micrograms/kg/injection, schedule: Q01DX009 (ip), vehicle: saline + alcohol) 96 % of control; (dose: 400.0 micrograms/kg/injection, schedule: Q04DX003 (ip), vehicle: saline + alcohol) 124 % of control. In addition, the T/C runs as follows: (dose: 600.0 micrograms/kg/injection, schedule: Q04DX003 (ip), vehicle: saline + alcohol) 119 % of control; (dose: 800.0 micrograms/kg/injection, schedule: Q04DX003 (ip), vehicle: saline + alcohol) 106 % of control; (dose: 1200.0 micrograms/kg/injection, schedule: Q04DX003 (ip), vehicle: saline + alcohol) 111 % of control.
For the compound `Clc1ccc(/C=N/N2CCN(/N=C/c3ccc(Cl)cc3)CC2)cc1`, the T/C reads like this: (dose: 100.0 mg/kg/injection, schedule: Q01DX001 (ip), vehicle: carboxymethylcellulose (CMC)) 96 % of control; (dose: 200.0 mg/kg/injection, schedule: Q01DX001 (ip), vehicle: carboxymethylcellulose (CMC)) 96 % of control; (dose: 400.0 mg/kg/injection, schedule: Q01DX001 (ip), vehicle: carboxymethylcellulose (CMC)) 96 % of control.
Turning to `COc1cc(C(=O)NCCBr)cc(OC)c1OC`, the T/C was 107 % of control (dose: 100.0 mg/kg/injection, schedule: Q04DX003 (ip), vehicle: saline); 108 % of control (dose: 200.0 mg/kg/injection, schedule: Q04DX003 (ip), vehicle: saline); 103 % of control (dose: 400.0 mg/kg/injection, schedule: Q04DX003 (ip), vehicle: saline).
Take `CC(C)=CCN(CC=C(C)C)CCC(C(N)=O)c1cccc2ccccc12` (configuration not stated): the T/C runs as follows: (dose: 6.25 mg/kg/injection, schedule: Q04DX003 (ip), vehicle: Klucel (hydroxypropylcellulose) (HPC)) 93 % of control; (dose: 12.5 mg/kg/injection, schedule: Q04DX003 (ip), vehicle: Klucel (hydroxypropylcellulose) (HPC)) 93 % of control; (dose: 25.0 mg/kg/injection, schedule: Q04DX003 (ip), vehicle: Klucel (hydroxypropylcellulose) (HPC)) 98 % of control.
As for `O=C(Nc1ccc(C2=NCCN2)cc1)Nc1cccc(C(=O)Nc2ccc(C3=NCCN3)cc2)c1`, the T/C is 106 % of control (dose: 1.0 mg/kg/injection, schedule: Q01DX Z (ip), vehicle: carboxymethylcellulose (CMC)); 117 % of control (dose: 2.0 mg/kg/injection, schedule: Q01DX Z (ip), vehicle: carboxymethylcellulose (CMC)); 97 % of control (dose: 3.75 mg/kg/injection, schedule: Q01DX Z (ip), vehicle: saline); 122 % of control (dose: 4.0 mg/kg/injection, schedule: Q01DX Z (ip), vehicle: carboxymethylcellulose (CMC)); 100 % of control (dose: 7.5 mg/kg/injection, schedule: Q01DX Z (ip), vehicle: saline); 150 % of control and 158 % of control (dose: 8.0 mg/kg/injection, schedule: Q01DX Z (ip), vehicle: carboxymethylcellulose (CMC)). In addition, the T/C is 110 % of control (dose: 15.0 mg/kg/injection, schedule: Q01DX Z (ip), vehicle: saline); 225 % of control (dose: 16.0 mg/kg/injection, schedule: Q01DX Z (ip), vehicle: carboxymethylcellulose (CMC)); 154 % of control (dose: 30.0 mg/kg/injection, schedule: Q01DX Z (ip), vehicle: carboxymethylcellulose (CMC)); 250 % of control (dose: 31.0 mg/kg/injection, schedule: Q01DX Z (ip), vehicle: carboxymethylcellulose (CMC)); 207 % of control and 320 % of control (dose: 62.0 mg/kg/injection, schedule: Q01DX Z (ip), vehicle: carboxymethylcellulose (CMC)); 198 % of control (dose: 120.0 mg/kg/injection, schedule: Q01DX Z (ip), vehicle: carboxymethylcellulose (CMC)). For the same compound, the T/C reads like this: (dose: 120.0 mg/kg/injection, schedule: Q01DX Z (oral), vehicle: saline) 101 % of control; (dose: 125.0 mg/kg/injection, schedule: Q01DX Z (ip), vehicle: carboxymethylcellulose (CMC)) 200 % of control; (dose: 240.0 mg/kg/injection, schedule: Q01DX Z (ip), vehicle: saline) 233 % of control; (dose: 240.0 mg/kg/injection, schedule: Q01DX Z (oral), vehicle: saline) 101 % of control; (dose: 480.0 mg/kg/injection, schedule: Q01DX Z (oral), vehicle: saline) 104 % of control.
Turning to `O=C(Nc1nc2ccccc2s1)C(F)(F)F`, the T/C runs as follows: (dose: 100.0 mg/kg/injection, schedule: Q01DX001 (ip), vehicle: saline) 102 % of control; (dose: 200.0 mg/kg/injection, schedule: Q01DX001 (ip), vehicle: saline) 93 % of control; (dose: 400.0 mg/kg/injection, schedule: Q01DX001 (ip), vehicle: saline) 102 % of control.
Regarding `O=C(NC(=S)NCc1ccccc1)c1ccccc1`, the T/C runs as follows: (dose: 75.0 mg/kg/injection, schedule: Q01DX001 (ip), vehicle: saline) 98 % of control; (dose: 150.0 mg/kg/injection, schedule: Q01DX001 (ip), vehicle: saline) 93 % of control; (dose: 300.0 mg/kg/injection, schedule: Q01DX001 (ip), vehicle: saline) 98 % of control.
As to `CSc1nc(SC)c2[nH]cnc2n1`, the T/C by setting is: under setting [1], 100 % of control; under setting [2], 105 % of control; under setting [3], 98 % of control.
Turning to `Clc1nc(Cl)c(Cl)nc1Cl`, the T/C was 102 % of control (dose: 25.0 mg/kg/injection, schedule: Q01DX009 (ip), vehicle: saline with Tween-80); 100 % of control (dose: 50.0 mg/kg/injection, schedule: Q01DX009 (ip), vehicle: saline with Tween-80); 100 % of control (dose: 100.0 mg/kg/injection, schedule: Q01DX009 (ip), vehicle: saline with Tween-80); 110 % of control (dose: 200.0 mg/kg/injection, schedule: Q01DX009 (ip), vehicle: saline with Tween-80); 96 % of control (dose: 400.0 mg/kg/injection, schedule: Q01DX009 (ip), vehicle: saline with Tween-80).
On to `COc1cc(-c2cc(=O)c3c(O)cc(O)c(C4OC(CO)C(O)C(O)C4O)c3o2)ccc1O` (configuration not stated), for which the T/C was 108 % of control (dose: 100.0 mg/kg/injection, schedule: Q01DX009 (ip), vehicle: saline); 108 % of control (dose: 200.0 mg/kg/injection, schedule: Q01DX009 (ip), vehicle: saline); 103 % of control (dose: 400.0 mg/kg/injection, schedule: Q01DX009 (ip), vehicle: saline).
For the compound `O=C1CCN(Cl)C(=O)N1Cl`, the T/C was 93 % of control (dose: 5.0 mg/kg/injection, schedule: Q01DX001 (ip), vehicle: saline); 95 % of control (dose: 10.0 mg/kg/injection, schedule: Q01DX001 (ip), vehicle: saline); 97 % of control (dose: 20.0 mg/kg/injection, schedule: Q01DX001 (ip), vehicle: saline).
As to `O=C(CCCOc1ccccc1)NCc1ccccc1[N+](=O)[O-]`, the T/C is 92 % of control (dose: 100.0 mg/kg/injection, schedule: Q01DX001 (ip), vehicle: Klucel (hydroxypropylcellulose) (HPC)); 96 % of control (dose: 200.0 mg/kg/injection, schedule: Q01DX001 (ip), vehicle: Klucel (hydroxypropylcellulose) (HPC)); 102 % of control (dose: 400.0 mg/kg/injection, schedule: Q01DX001 (ip), vehicle: Klucel (hydroxypropylcellulose) (HPC)).
As for `CC(=O)c1cccc(NC(=O)OC2CCCC(C)C2)c1` (configuration not stated), the T/C is 93 % of control under setting [1], 101 % of control under setting [2] and 97 % of control under setting [3].
Turning to `CC1=C(Br)C(=O)NC1=O`, the T/C (dose: 100.0 mg/kg/injection, schedule: Q04DX003 (ip), vehicle: saline with Tween-80) was 107 % of control; the T/C (dose: 200.0 mg/kg/injection, schedule: Q04DX003 (ip), vehicle: saline with Tween-80) was 101 % of control; the T/C (dose: 400.0 mg/kg/injection, schedule: Q04DX003 (ip), vehicle: saline with Tween-80) was 107 % of control.
As for `COC1OC2COc3ccccc3OC2C(NC(N)=S)C1OC` (configuration not stated), the T/C is, setting by setting: (dose: 100.0 mg/kg/injection, schedule: Q01DX009 (ip), vehicle: gum acacia) 107 % of control; (dose: 200.0 mg/kg/injection, schedule: Q01DX009 (ip), vehicle: gum acacia) 102 % of control; (dose: 400.0 mg/kg/injection, schedule: Q01DX009 (ip), vehicle: gum acacia) 93 % of control.

The values are drawn from PubChem BioAssay AID248 (DTP/NCI, 2004).
